According to US5550110A, “Endothelin Antagonists II” (Warner-Lambert Company, priority 1994, dated 1996):
Square brackets hold non-standard residues; d marks the D form. Peptide text beside a SMILES is read from it. * marks the point of attachment. dGly(5-dibenzosuberyl) = N[C@@H](C(=O)O)C1c2ccccc2CCc2ccccc21; For = O=C*

How the values were obtained:
[1] = test system: endothelin receptor (ETA), rabbit renal artery vascular smooth muscle cells; assay: Endothelin Receptor Binding Assay-A (ERBA-A), intact cell binding of [125I]-ET-1; details: [125I]-ET-1 25 pM
Procedure: The compounds of Formula I are valuable antagonists of endothelin. […] Thus, the compounds of Formula I were tested for their ability to inhibit [^125 I]-ET-1([^125 I]-Endothelin-1) binding in a receptor assay according to the following procedures: Endothelin Receptor Binding Assay-A (ERBA-A) Intact Cell Binding of [^125 I]-ET-1 The cells used were rabbit renal artery vascular smooth muscle cells grown in a 48-well dish (1 cm^2) (confluent cells). The assay buffer was a medium 199 containing Hanks salts and 25 mM Hepes buffer (Gibco 380-2350AJ), supplemented with penicillin/streptomycin/fungizone (0.5%) and bovine serum albumin (1 mg/mL). Amersham radioiodinated endothelin-1 [^125 I]-ET-1 was used at final concentration of 20,000 cpm/0.25 mL (25 pM). […] Second, remove the assay buffers, place the dish on ice, and add 150 μL of cold assay buffer described above to each well. Third, add […] each of cold [^125 I]-ET-1 and competing ligand to the solution (at the same time if possible). Next, place dish in a 37° C. water bath for about 2 hours and gently agitate the dish every 15 minutes. Discard the radioactive incubation mixture in the sink and wash wells 3 times with 1 mL of cold phosphate buffered saline. Last, add […] of 0.25 molar sodium hydroxide, agitate for 1 hour on a rotator, and then transfer the sodium hydroxide extract to gamma counting tubes and count the radioactivity.

[2] = target: T1, endothelin receptor (ETB), rat cerebellar membranes (Rattus norvegicus, UniProt P21451); assay: Endothelin Receptor Binding Assay-B (ERBA-B), [125I]-ET-1 binding in rat cerebellar membranes; details: [125I]-ET-1 25 pM, read-out: ERRA-B IC50
T1 construct: thaw one aliquot of frozen rat cerebellar membranes (2 mg protein in 0.5 mL); from tissue; host or cells: rat cerebellum (membranes)
T1 sequence (P21451 27-442): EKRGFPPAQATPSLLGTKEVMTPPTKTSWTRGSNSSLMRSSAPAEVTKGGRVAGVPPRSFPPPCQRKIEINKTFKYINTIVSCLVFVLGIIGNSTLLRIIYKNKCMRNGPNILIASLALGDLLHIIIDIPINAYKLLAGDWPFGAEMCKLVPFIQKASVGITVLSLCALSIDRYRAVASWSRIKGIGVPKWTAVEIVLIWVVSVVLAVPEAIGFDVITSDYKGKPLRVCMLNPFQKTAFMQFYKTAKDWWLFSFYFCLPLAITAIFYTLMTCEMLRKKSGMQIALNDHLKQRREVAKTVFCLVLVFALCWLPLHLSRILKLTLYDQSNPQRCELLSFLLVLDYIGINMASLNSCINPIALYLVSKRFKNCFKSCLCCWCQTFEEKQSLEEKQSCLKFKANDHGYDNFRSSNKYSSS
Procedure: Endothelin Receptor Binding Assay-B (ERBA-B) [^125 I]-ET-1 Binding in Rat Cerebellar Membranes
The tissue is made up of 20 mM tris(hydroxymethyl)aminomethane hydrochloride (Trizma) buffer, 2 mM ethylenediaminetetra acetate, 100 μM phenylmethylsulfonyl fluoride.
First, thaw one aliquot of frozen rat cerebellar membranes (2 mg protein in 0.5 mL). Next, add 0.5 mL membrane aliquot to 4.5 mL cold tissue buffer, polytron at 7,500 revolutions per minute for 10 seconds. Finally, dilute tissue suspension 1/100 (0.1 mL suspension+9.9 mL tissue buffer), polytron again, and place ice.
Medium 199 with Hank's salts plus 25 mM Hepes+1 mg/mL bovine serum albumin.
Amersham [^125 I]-ET-1 (aliquots of 2×10^6 cpm per […] aliquot of [^125 I]-ET-1 with 5.2 mL dilution buffer, place on ice until use (final concentration will be 20,000 cpm per tube, or 25 pM).
Add 50 μL each of cold [^125 ]-ET-1 and competing ligand to tubes on ice. Mix in 150 μL of tissue to each tube, vortex briefly, then tap to force all liquids to bottom (total assay volume=250 μL). Then place the tubes in a 37° C. water bath for 2 hours.
Add 2.5 mL cold wash buffer (50 mM Trizma buffer) to each tube, filter, and then wash tube with additional 2.5 mL wash buffer and add to filter. Finally, wash filters with an additional 2.5 mL of cold wash buffer.
Count filters for radioactivity in gamma counter.

[3] = test system: endothelin receptor, cultured rabbit renal artery vascular smooth muscle cells; assay: Inhibition of ET-1 stimulated arachidonic acid release (AAR-A); type: cell-based; details: ET-1 0.3 nM
Procedure: (§1) In Vitro Inhibition of ET-1 Stimulated Arachidonic Acid Release in Cultured Rabbit Vascular Smooth Muscle Cells (AAR-A) or CHO Cells Expressing Rat Recombinant ETB Receptor (AAR-B) by Compounds of Formula I
(§2) Antagonist activity is measured by the ability of added compounds to reduce endothelin-stimulated arachidonic acid release in cultured vascular smooth muscle cells as arachidonic acid release (AAR). [^3 H] Arachidonic Acid Loading Media (LM) is DME/F12+0.5% fetal calf serum (FCS)×0.25 mCi/mL [^3 H] arachidonic acid (Amersham). Confluent monolayers of cultured rabbit renal artery vascular smooth muscle cells (AAR-A) or CHO cells expressing rat recombinant ETB receptor (AAR-B) were incubated in 0.5 mL of the LM over 18 hours, at 37° C., in 5% CO2. The LM was aspirated and the cells were washed once with the assay buffer (Hank's balanced salt solution [BSS]+10 mM HEPES+fatty acid-free BSA (1 mg/mL)), and incubated for 5 minutes with 1 mL of the prewarmed assay buffer. This solution was aspirated, followed by an additional 1 mL of prewarmed assay buffer, and further incubated for another 5 minutes. A final 5-minute incubation was carried out in a similar manner. The same procedure was repeated with the inclusion of 10 μL of the test compound (1 nM to 1 μM) and 10 μL ET-1 (0.3 nM) and the incubation was extended for 30 minutes. This solution was then collected, […] of scintillation cocktail was added, and the amount of [^3 H] arachidonic acid was determined in a liquid scintillation counter.

[4] = target: T2, rat recombinant ETB receptor (CHO cells) (Rattus norvegicus, UniProt P21451); assay: Inhibition of ET-1 stimulated arachidonic acid release (AAR-B); type: cell-based; details: ET-1 0.3 nM
T2 construct: expressed in transfected cells; host or cells: CHO cells
T2 sequence (P21451 27-442): T1 sequence (P21451 27-442)
Procedure: as §1, §2

CC[C@H](C)[C@H](NC(=O)[C@H](CC(=O)O)NC(=O)[C@H](CC(C)C)NC(=O)[C@@H](N)C1c2ccccc2CCc2ccccc21)C(=O)N[C@H](C(=O)N[C@@H](Cc1c[nH]c2ccccc12)C(=O)O)[C@@H](C)CC [Example 3, L-Bhg-Leu-Asp-Ile-Ile-Trp] (HELM PEPTIDE1{[N[C@H](C(=O)[*:2])C1c2ccccc2CCc2ccccc21].L.D.I.I.W}$$$$V2.0)
IC50 [1]: 2500 nM | IC50 [2]: 3000 nM | IC50 [3]: 2360 nM

CC[C@H](C)[C@H](NC(=O)[C@H](CC(=O)O)NC(=O)[C@H](CC(C)C)NC(=O)[C@@H](NC(C)=O)C1c2ccccc2CCc2ccccc21)C(=O)N[C@H](C(=O)N[C@@H](Cc1c[nH]c2ccccc12)C(=O)O)[C@@H](C)CC [Example 4, Ac-L-Bhg-Leu-Asp-Ile-Ile-Trp] (HELM PEPTIDE1{[ac].[O=C([C@@H](N[*:1])C1c2ccccc2CCc2ccccc21)[*:2]].L.D.I.I.W}$$$$V2.0)
IC50 [2]: 710 nM

CC[C@H](C)[C@H](NC(=O)[C@H](CC(=O)O)NC(=O)[C@H](CC(C)C)NC(=O)[C@H](NC(C)=O)C1c2ccccc2Sc2ccccc21)C(=O)N[C@H](C(=O)N[C@@H](Cc1c[nH]c2ccccc12)C(=O)O)[C@@H](C)CC [Example 5, Ac-D-Txg-Leu-Asp-Ile-Ile-Trp] (HELM PEPTIDE1{[ac].[O=C([C@H](N[*:1])C1c2ccccc2Sc2ccccc21)[*:2]].L.D.I.I.W}$$$$V2.0)
IC50 [1]: 18 nM | IC50 [4]: 62 nM | IC50 [2]: 180 nM | IC50 [3]: 50 nM

CC[C@H](C)[C@H](NC(=O)[C@H](CC(=O)O)NC(=O)[C@H](CC(C)C)NC(=O)[C@@H](NC(C)=O)C1c2ccccc2Oc2ccccc21)C(=O)N[C@H](C(=O)N[C@@H](Cc1c[nH]c2ccccc12)C(=O)O)[C@@H](C)CC [Example 9, Ac-L-Oxn-Leu-Asp-Ile-Ile-Trp] (HELM PEPTIDE1{[ac].[O=C([C@@H](N[*:1])C1c2ccccc2Oc2ccccc21)[*:2]].L.D.I.I.W}$$$$V2.0)
IC50 [1]: 50 nM | IC50 [2]: 930 nM

CC[C@H](C)[C@H](NC(=O)[C@H](CC(=O)O)NC(=O)[C@H](CC(C)C)NC(=O)[C@H](NC(C)=O)C1c2ccccc2Oc2ccccc21)C(=O)N[C@H](C(=O)N[C@@H](Cc1c[nH]c2ccccc12)C(=O)O)[C@@H](C)CC [Example 10, Ac-D-Oxn-Leu-Asp-Ile-Ile-Trp] (HELM PEPTIDE1{[ac].[O=C([C@H](N[*:1])C1c2ccccc2Oc2ccccc21)[*:2]].L.D.I.I.W}$$$$V2.0)
IC50 [1]: 120 nM | IC50 [2]: 550 nM

CC[C@H](C)[C@H](NC(=O)[C@H](CC(=O)O)NC(=O)[C@H](CC(C)C)NC(=O)[C@@H](N)C1c2ccccc2Sc2ccccc21)C(=O)N[C@H](C(=O)N[C@@H](Cc1c[nH]c2ccccc12)C(=O)O)[C@@H](C)CC [Example 11, L-Txg-Leu-Asp-Ile-Ile-Trp] (HELM PEPTIDE1{[N[C@H](C(=O)[*:2])C1c2ccccc2Sc2ccccc21].L.D.I.I.W}$$$$V2.0)
IC50 [1]: 4500 nM | IC50 [2]: 2100 nM

CC[C@H](C)[C@H](NC(=O)[C@H](CC(=O)O)NC(=O)[C@H](CC(C)C)NC(=O)[C@@H](NC(C)=O)C1c2ccccc2Sc2ccccc21)C(=O)N[C@H](C(=O)N[C@@H](Cc1c[nH]c2ccccc12)C(=O)O)[C@@H](C)CC [Example 12, Ac-L-Txg-Leu-Asp-Ile-Ile-Trp] (HELM PEPTIDE1{[ac].[O=C([C@@H](N[*:1])C1c2ccccc2Sc2ccccc21)[*:2]].L.D.I.I.W}$$$$V2.0)
IC50 [1]: 1500 nM | IC50 [2]: 2100 nM

CC[C@H](C)[C@H](NC(=O)[C@H](CC(=O)O)NC(=O)[C@H](CC(C)C)NC(=O)[C@H](N)C1c2ccccc2Sc2ccccc21)C(=O)N[C@H](C(=O)N[C@@H](Cc1c[nH]c2ccccc12)C(=O)O)[C@@H](C)CC [Example 13, D-Txg-Leu-Asp-Ile-Ile-Trp] (HELM PEPTIDE1{[N[C@@H](C(=O)[*:2])C1c2ccccc2Sc2ccccc21].L.D.I.I.W}$$$$V2.0)
IC50 [1]: 830 nM | IC50 [4]: 2400 nM | IC50 [2]: 380 nM | IC50 [3]: 320 nM

CC[C@H](C)[C@H](NC(=O)[C@H](CC(=O)O)NC(=O)[C@H](CCCN=C(N)N)NC(=O)[C@H](NC(C)=O)C1c2ccccc2CCc2ccccc21)C(=O)N[C@H](C(=O)N[C@@H](Cc1c[nH]c2ccccc12)C(=O)O)[C@@H](C)CC [Example 14, Ac-D-Bhg-Arg-ASp-Ile-Ile-Trp] (HELM PEPTIDE1{[ac].[O=C([C@H](N[*:1])C1c2ccccc2CCc2ccccc21)[*:2]].R.D.I.I.W}$$$$V2.0)
IC50 [2]: 40 nM

CC[C@H](C)[C@H](NC(=O)[C@@H](NC(=O)[C@H](CC(=O)O)N(C)C(=O)[C@H](CC(C)C)NC(=O)[C@H](NC(C)=O)C1c2ccccc2CCc2ccccc21)[C@@H](C)CC)C(=O)N[C@@H](Cc1c[nH]c2ccccc12)C(=O)O [Example 15, Ac-D-Bhg-Leu-N-MeAsp-Ile-Ile-Trp] (HELM PEPTIDE1{[ac].[O=C([C@H](N[*:1])C1c2ccccc2CCc2ccccc21)[*:2]].L.[meD].I.I.W}$$$$V2.0)
IC50 [2]: 1900 nM

CC[C@H](C)[C@H](NC(=O)[C@H](Cc1ccccc1)NC(=O)[C@H](CC(=O)O)NC(=O)[C@H](CC(C)C)NC(=O)[C@H](NC(C)=O)C1c2ccccc2CCc2ccccc21)C(=O)N[C@@H](Cc1c[nH]c2ccccc12)C(=O)O [Example 17, Ac-D-Bhg-Leu-Asp-Phe-Ile-Trp] (HELM PEPTIDE1{[ac].[O=C([C@H](N[*:1])C1c2ccccc2CCc2ccccc21)[*:2]].L.D.F.I.W}$$$$V2.0)
IC50 [1]: 68 nM | IC50 [2]: 30 nM

CC[C@H](C)[C@H](NC(=O)[C@H](CC(=O)O)NC(=O)[C@H](CCCNC(=N)N)NC(=O)[C@H](NC(C)=O)C1c2ccccc2CCc2ccccc21)C(=O)N[C@H](C(=O)N[C@@H](Cc1cn(C=O)c2ccccc12)C(=O)O)[C@@H](C)CC [Example 18, Ac-D-Bhg-Arg-Asp-Ile-Ile-Trp(For)] (Ac-[dGly(5-dibenzosuberyl)]RDIIW(For)-OH)
IC50 [1]: 79 nM | IC50 [2]: 4900 nM
